From patent US20160193278A1, “METHODS AND COMPOSITIONS FOR PREVENTING OR TREATING LEBER'S HEREDITARY OPTIC NEUROPATHY” (STEALTH BIOTHERAPEUTICS CORP, priority 2013, published 2016)
Where no end group is shown, it is not given here. [ ]: non-standard residue; d: D form.

Columns and labels:
[1] = test system: excessive production of reactive oxygen species; conditions: cited from earlier work
[2] = target: mu-opioid receptor (Homo sapiens, UniProt P35372); conditions: cited from earlier work
[3] = test system: caspase activation and apoptosis; conditions: known in the art; cited from earlier work
[4] = test system: LHON cybrid cells (11778/ND4, 3460/ND1, 14484/ND6); experiment: Respiratory rate of digitonin-permeabilized LHON cybrids (Example 4); type: cell-based, human; conditions: 1-10 μg, compared to untreated LHON cybrid cells
Source text: (§1) Cybrid cell lines are constructed using enucleated fibroblasts from a control individual (i.e., negative for LHON) and 3 unrelated probands with LHON as mitochondria donors. One control cybrid cell line and three LHON cybrid cell lines, one for each of the most common pathogenic mutations found in LHON, i.e., mutations at positions 11778/ND4, 3460/ND1, and 14484/ND6 of mtDNA, are produced.
The mitochondrial donor cytoplast is fused with the osteosarcoma (143B.TK-)-derived 206 cell line (rho^0 206 cell line). All fibroblast cell lines are established from skin biopsy samples or from umbilical cord specimens after having obtained the informed consent of LHON and control patients. Cell fusions of fibroblast-derived cytoplasts (enucleated fibroblasts) with the rho^0 206 cells are performed using the protocol, e.g., described in King et al., Science, 246: 500-03 (1989). […]
(§2) 1 ml of each cybrid cell line at 5×10^6 cells/ml is individually plated in tissue culture plates with growth media. […] After incubation for 1 hour at 37° C., the ATP synthesis rate and cellular respiration are measured.
Respiratory rates of digitonin-permeabilized cell samples are measured at 30° C. using a Clark-type oxygen electrode as previously described by Aicardi et al., Biochem Pharmacol., 31:3703-3705 (1982). The respiratory control ratio (RCR) is evaluated using glutamate-malate as a substrate.

[5] = test system: reactive oxygen species (ROS) production; conditions: known in the art; demonstrated in U.S. Pat. Nos. 7,550,439 and 7,576,061; cited from earlier work
[6] = test system: LHON cybrid cells (11778/ND4, 3460/ND1, 14484/ND6); experiment: ATP synthesis rate in LHON cybrids (Example 4); type: cell-based, human; conditions: 1-10 μg, compared to untreated LHON cybrid cells
Source text: as §1
The mitochondrial donor cytoplast is fused with the osteosarcoma (143B.TK-)-derived 206 cell line (rho^0 206 cell line). All fibroblast cell lines are established from skin biopsy samples or from umbilical cord specimens after having obtained the informed consent of LHON and control patients. […]
as §2
The ATP synthesis rate is assayed by permeabilizing the cells with digitonin according to the method described by Ouhabi et al., Anal Biochem., 263: 169-175 (1998). […] The ATP content is measured using the luciferin-luciferase chemiluminescent method, e.g., described in Stanley et al., Anal Biochem., 29: 381-392 (1969).

[7] = test system: human subjects at risk of having, suspected of having, or diagnosed as having LHON; experiment: Prevention and treatment of LHON in human subjects (Example 3); type: in vivo
Method: Human subjects at risk of having, suspected of having, or diagnosed as having LHON are administered a therapeutically effective amount of an aromatic-cationic peptide of the present technology, such as D-Arg-2′,6′-Dmt-Lys-Phe-NH2, alone or in conjunction with one or more additional therapeutic agents, on a therapeutic schedule appropriate for the prophylactic/therapeutic needs of the individual.
LHON patients are administered 1-10 μg D-Arg-2′,6′-Dmt-Lys-Phe-NH2 or saline vehicle subcutaneously once daily for 12 months. In another treatment group, LHON patients receive 1 drop of 1%, 3%, or 5% D-Arg-2′,6′-Dmt-Lys-Phe-NH2 ophthalmic solution or saline vehicle in both eyes three times per day for 12 months. Subjects are assessed periodically for signs and symptoms associated with LHON according to one or more criteria described herein.

[8] = test system: murine model of LHON (ND6 P25L mutation); experiment: Treatment of LHON in ND6 P25L mouse model (Example 2); type: in vivo; conditions: ND6 P25L mice
[9] = test system: murine model of LHON (ND6 P25L mutation); experiment: Prevention of LHON in ND6 P25L mouse model (Example 1); type: in vivo; conditions: ND6 P25L mice
[10] = test system: LHON patients; conditions: cited from earlier work
[11] = test system: LHON patients; conditions: 900 mg/d for 24 weeks, vs placebo; preliminary press release; cited from earlier work
[12] = test system: brain mitochondrial H2O2 production; experiment: Brain mitochondrial / synaptosome H2O2 production with rotenone; type: biochemical, mouse; conditions: for decrease of the rate of generation of H2O2 during RET conditions: succinate plus oligomycin
[13] = test system: quails; conditions: group with high zeaxanthin concentrations; cited from earlier work
[14] = test system: several mammalian cell types; conditions: cited from earlier work
[15] = once daily from 14-24 months of age
[16] = once daily from 0-14 months of age

Chain of mu-opioid receptor (P35372 whole entry, species assumed): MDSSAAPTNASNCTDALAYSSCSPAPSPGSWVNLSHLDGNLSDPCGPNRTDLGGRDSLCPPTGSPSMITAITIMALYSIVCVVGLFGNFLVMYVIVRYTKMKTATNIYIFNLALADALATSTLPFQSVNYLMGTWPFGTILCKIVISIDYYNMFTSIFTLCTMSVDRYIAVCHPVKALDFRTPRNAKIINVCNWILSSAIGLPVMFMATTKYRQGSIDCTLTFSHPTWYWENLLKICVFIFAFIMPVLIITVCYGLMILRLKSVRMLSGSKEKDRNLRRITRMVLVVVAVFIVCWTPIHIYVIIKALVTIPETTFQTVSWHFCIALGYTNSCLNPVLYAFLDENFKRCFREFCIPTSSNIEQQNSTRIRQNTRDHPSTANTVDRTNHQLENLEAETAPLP

COC1=C(OC)C(=O)C(C/C=C(\C)CC/C=C(\C)CC/C=C(\C)CC/C=C(\C)CC/C=C(\C)CC/C=C(\C)CC/C=C(\C)CC/C=C(\C)CC/C=C(\C)CCC=C(C)C)=C(C)C1=O [coenzyme Q-10]
protective effects in vitro [1]: modest protective effects

Cc1c(C)c2c(c(C)c1O)CCC(C)(C(=O)O)O2 (stereo not drawn) [Trolox]
protective effects in vitro [1]: modest protective effects

N[C@@H](CCC(=O)N[C@@H](CS)C(=O)NCC(=O)O)C(=O)O [glutathione]
protective effects in vitro [1]: modest protective effects

F[dR]FK-NH2
mu-opioid receptor agonist activity [2]: does not have mu-opioid receptor agonist activity

D-Arg-2′,6′-Dmt-Lys-Phe-NH2
caspase activation and apoptosis [3]: capacity to inhibit caspase activation and apoptosis | mu-opioid receptor agonist activity [2]: does not have mu-opioid receptor agonist activity | respiratory rate [4]: higher respiratory rate | anti-oxidant properties [5]: possess anti-oxidant properties | ATP synthesis rate [6]: greater ATP synthesis rate | symptoms of LHON ([7]; human subjects at risk of, suspected of or diagnosed as having LHON): prevent the onset of, delay the onset of, or reduce the severity of the symptoms of LHON | effect of combination compared to any individual therapeutic agent alone ([7]; in combination with one or more additional therapeutic agents, human subjects): synergistic effects | RGC axonal swelling and preferential loss of smallest fibers [8, 15]: reduce or eliminate the effects of the ND6 P25L mutation | abnormal mitochondrial morphology and proliferation in RGC axons [8, 15]: reduce or eliminate the effects of the ND6 P25L mutation | altered liver mitochondria complex I activity [8, 15]: reduce or eliminate the effects of the ND6 P25L mutation | forward / reverse electron flow ROS production in liver mitochondria [8, 15]: reduce or eliminate the effects of the ND6 P25L mutation | reduced complex I activity and altered ROS production in synaptosomes [8, 15]: reduce or eliminate these effects of the ND6 P25L mutation | reduced retinal response (electroretinogram deficits) [8, 15]: reduce or eliminate the effects of the ND6 P25L mutation | effect of combination compared to any individual therapeutic agent alone ([8]; in combination with one or more additional therapeutic agents, treatment): synergistic effects | RGC axonal swelling and preferential loss of smallest fibers [9, 16]: prevent the onset of, delay the onset of, or reduce the severity of these effects | abnormal mitochondrial morphology and proliferation in RGC axons [9, 16]: prevent the onset of, delay the onset of, or reduce the severity of these effects | altered liver mitochondria complex I activity [9, 16]: prevent the onset of, delay the onset of, or reduce the severity of these effects | effects of the ND6 P25L mutation; LHON and its symptoms [9, 16]: prevent the onset of, delay the onset of, and/or reduce the severity (e.g., ameliorate) of the effects of the ND6 P25L mutation | forward / reverse electron flow ROS production in liver mitochondria [9, 16]: prevent the onset of, delay the onset of, or reduce the severity of these effects | reduced complex I activity and altered ROS production in synaptosomes [9, 16]: prevent the onset of, delay the onset of, or reduce the severity of these effects | reduced retinal response (electroretinogram deficits) [9, 16]: prevent the onset of, delay the onset of, or reduce the severity of (e.g. ameliorate) these effects | effect of combination compared to any individual therapeutic agent alone ([9]; in combination with one or more additional therapeutic agents, prevention): synergistic effects

COC1=C(OC)C(=O)C(CCCCCCCCCCO)=C(C)C1=O [idebenone]
diameter of the central scotomas after treatment ([10]; one 11778/ND4 LHON patient, from about 20 degrees): less than 5 degrees | recovery of visual function ([10]; seven LHON patients, about 450 mg/d): recovery of visual acuity, color vision, and visual fields | final visual acuity [11]: better final visual acuity than the placebo group

Tyr-D-Arg-Phe-Lys-NH2
mu-opioid receptor agonist activity [2]: has mu-opioid receptor agonist activity

C=C(C)[C@H]1Cc2c(ccc3c2O[C@@H]2COc4cc(OC)c(OC)cc4[C@@H]2C3=O)O1 [rotenone]
decrease of the rate of generation of H2O2 during RET conditions ([12]; ND6 P25L mice): approximately 59% | increase of the rate of H2O2 production during forward electron transfer ([12]; ND6 P25L synaptosomes): ~2.7 fold | decrease of the rate of generation of H2O2 during RET conditions ([12]; wild-type animals): approximately 79% | increase of the rate of H2O2 production during forward electron transfer ([12]; wild-type synaptosomes): ~2.3 fold

CC1=C(/C=C/C(C)=C/C=C/C(C)=C/C=C/C=C(C)/C=C/C=C(C)/C=C/C2=C(C)C[C@@H](O)CC2(C)C)C(C)(C)C[C@H](O)C1 [zeaxanthin]
light damage of the retina (apoptotic photoreceptor cells) [13]: minimal damage

2′,6′-Dmt-D-Arg-Phe-Lys-NH2
penetration of the plasma membrane [14]: readily penetrates the plasma membrane of several mammalian cell types in an energy-independent manner
